Assay: gradient 5% acetonitrile 3 min, to 50% in 2 min, to 85% in 15 min, held 3 min, 100 µL/min
Conditions: column: Zorbax Extend-C18 2.1 x 50 mm; eluents: water / acetonitrile, 0.1% formic acid
In short: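 In both positive and negative ionization mode, a quadrupole time-of-flight mass spectrometer coupled to HPLC analyzed pure standards run in mixtures of ~100 molecules. The Zorbax Extend-C18 column (2.1 × 50 mm, 1.8 μm) was operated at 100 μL/min with water and acetonitrile, each containing 0.1% formic acid. The dead volume was 40 μL and the dwell volume 900 μL. Retention time came from adduct peaks that were computationally picked and individually inspected by hand.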

| Structure (SMILES) | RP-LC retention time |
| --- | --- |
| Cc1ccc(CNC(=O)CCc2c(C)nn(-c3cc(N4CCCC4)ncn3)c2C)o1 | 745 s |
| CCN(Cc1cnn(CC)c1)C(=O)C1CN(C(=O)c2ccccc2)CC12CCCCC2 (stereo unspecified) | 812 s |
| Cn1cc(CCN2CCC(C(=O)NCc3ccccc3F)CC2)c2cccnc21 | 595 s |
| c1ccc(CNc2nnc(-c3nc(C4CC4)no3)c3ccccc23)cc1 | 878 s |
| Cc1oc(C2CCN(S(=O)(=O)c3ccccc3F)CC2)nc1C(=O)N1CCOCC1 | 776 s |
| CC(C)NC(=O)C1CCN(c2cncnc2N2CCOCC2)CC1 | 570 s |
| CCN1C(=O)CCC2(C(=O)Nc3ccc(OC)cc3OC)CCCC=C12 (stereo unspecified) | 789 s |
| CCNc1cc(C)nc(N2CCN(C(=O)c3ccc(-c4ccccc4)cc3)CC2)n1 | 746 s |
| COc1ccccc1CNC(=O)C1CCCN(c2ccc(=O)n(-c3cccc(Cl)c3)n2)C1 (stereo unspecified) | 883 s |
| Cn1c(=O)sc2cc(S(=O)(=O)N3CCC(C(=O)NCc4ccccc4)CC3)ccc21 | 851 s |
| CC1=C(c2ccc(F)cc2)S(=O)(=O)N=C1N1CCCN(C(=O)C2CCOC2)CC1 (stereo unspecified) | 886 s |
| CN(C)S(=O)(=O)c1ccc(C(=O)Nc2nc(-c3coc4ccccc34)cs2)cc1 | 1030 s |
| Cc1ccccc1Nc1c(-c2ccc(N3CCOCC3)cc2)nc2cccc(C)n12 | 702 s |
| Cn1nc(C(=O)N2CCOCC2)c2c1CCN(C(=O)CCC(=O)NC1CCCCCC1)C2 | 652 s |
| CC1=C(c2ccc(C)cc2)S(=O)(=O)N=C1N1CCCN(C(=O)NCc2ccco2)CC1 | 803 s |
| Cc1ccc(-c2cc3c4nnc(SCC(=O)Nc5ccc(Cl)cc5)n4ccn3n2)cc1C | 1080 s |
| COCc1nc(CCNC(=O)NC2CCCCC2)no1 | 691 s |
| O=C(NCCOc1ccc2c(c1)OCO2)c1c(F)cccc1F | 760 s |
| COc1ccccc1-c1noc(C2CCCN2C(=O)c2ccc(C#N)cc2F)n1 (stereo unspecified) | 839 s |
| O=C(Cn1nc(C(=O)N2CCCC2)c2ccccc21)N1CCN(Cc2ccc3c(c2)OCO3)CC1 | 622 s |
| COc1ccc(-c2cc(N3CCN(C(=O)Nc4cc(OC)ccc4OC)CC3)ncn2)cc1 | 685 s |
| Cc1c(Cl)cccc1N1C(=O)CN(S(C)(=O)=O)CC1(C)C(=O)NC1CCCCCCC1 (stereo unspecified) | 1010 s |

| Structure (SMILES) | RP-LC retention time |
| --- | --- |
| Cc1cnc(-c2ccccc2)n1C1CCN(S(=O)(=O)c2ccc(C#N)cc2)C1 (stereo unspecified) | 680 s |
| Cc1cccc(CN2CC(=O)N(c3cccc(Cl)c3)[C@@H]3CS(=O)(=O)C[C@@H]32)c1 | 892 s |
| O=C(CCC1CCN(c2cc(NC3CC3)ncn2)CC1)NCc1ccc(F)cc1F | 684 s |
| Cc1cnc(-c2ccncc2)n1CC1CN(S(=O)(=O)C(C)C)C1 | 573 s |
| CCOC(=O)c1c(C)oc2nc(C)nc(NCCc3ccc(C)cc3)c12 | 1330 s |
| CCOC(=O)c1[nH]c(C)c(CCC(=O)N2CCC(C(=O)NC3CC3)CC2)c1C | 650 s |
| COc1ccc(OC)c(NC(=O)N(C)CCc2noc(COc3ccccc3F)n2)c1 | 932 s |
| O=C(c1ccc(OCC2CCCN2C(=O)c2ccc(F)c(F)c2)cc1)N1CCCC1 (stereo unspecified) | 779 s |
| COc1ccccc1-c1noc(C2CCCN2C(=O)Nc2cccc(SC)c2)n1 (stereo unspecified) | 908 s |
| O=C(NCc1cccnc1)C1CCN(Cc2cc3ccccc3n2Cc2cccc(Cl)c2)CC1 | 750 s |
| Cc1ccc(N2C(=O)C3N=NN(Cc4nc(-c5ccc(OC(C)C)cc5)no4)C3C2=O)cc1Cl (stereo unspecified) | 1170 s |
| CCOc1cc(-c2ccccc2)nc2ccc(NS(=O)(=O)c3ccc(NC(C)=O)cc3)cc12 | 669 s |
| CC(Oc1cccc(F)c1)C(=O)NCCOc1ccccc1 (stereo unspecified) | 857 s |
| O=C(CN1C(=O)NC2(CCCCC2)C1=O)Nc1ccc(F)cc1F | 736 s |
| COc1cc(NC(=O)C2CCN(S(=O)(=O)c3ccc4c(c3)NC(=O)C(C)O4)CC2)cc(OC)c1 (stereo unspecified) | 811 s |
| CCc1noc(-c2nc(-c3ccc(OC)cc3)no2)n1 | 986 s |
| Cc1noc(-c2nn(C)c3c2CN(C(=O)Nc2ccccc2Cl)CC3)n1 | 725 s |
| Cc1noc(C)c1S(=O)(=O)N1C[C@@H](F)C[C@H]1C(=O)N1CCCCC1 | 765 s |
| O=C(NCCc1ccccc1)NC1CCN(C(=O)N2C[C@H]3C[C@H](C2)[C@H]2CCCC(=O)N2C3)CC1 | 658 s |
| CCc1noc(NC(C)=O)c1-c1ccc(OC)c(S(=O)(=O)Nc2ccc(F)cc2C)c1 | 796 s |
| Cc1cc(C)c2c(N3CCSCC3)nc(C(=O)NC(C)c3ccccn3)nc2n1 (stereo unspecified) | 618 s |
| CCNc1cc(N2CCCC(CCC(=O)N3CCN(C(=O)c4ccco4)CC3)C2)ncn1 (stereo unspecified) | 610 s |

| Structure (SMILES) | RP-LC retention time |
| --- | --- |
| CN1CCN(CCCNC(=O)Cn2c3ccccc3c3cnn(C)c(=O)c32)CC1 | 560 s |
| O=C1COc2ccccc2N1Cc1nc(-c2ccc3c(c2)nnn3C2CCCC2)no1 | 1030 s |
| COc1cc(NC(=O)Cn2nc3n(c2=O)CCCCC3)cc(OC)c1 | 704 s |
| Cc1noc(C)c1CC(=O)N1CC[C@@H]2CN(S(C)(=O)=O)[C@@H]2C1 | 608 s |
| CN(C)[C@@H]1CN(C(=O)CCc2nc3ccc(Cl)cc3[nH]2)C[C@H]1CO | 529 s |
| O=C(NCCOc1ccc2nnc(-c3ccccc3Cl)n2n1)c1cccs1 | 664 s |
| CCCOc1ccc(-c2cn3ccccc3n2)cc1[N+](=O)[O-] | 681 s |
| O=C(CCn1c(N2CCCC2)nc2ccsc2c1=O)N1CCN(c2ccccn2)CC1 | 609 s |
| COc1ccc(NC(=O)NCC2CCOCC2)cc1F | 668 s |
| COc1ccc(Cl)cc1C(=O)Nc1ccc2c(c1)N(C)C(=O)C(C)(C)CO2 | 955 s |
| O=C(Cn1c2ccccc2n2c(=O)cc(-c3ccc(F)cc3)nc12)NCc1ccco1 | 912 s |
| Cc1ccc(CNS(=O)(=O)c2cn(CC(C)C)c3ncccc23)cc1 | 1050 s |
| Cc1cc(C(=O)N(C)C)c(C)n1-c1ccc(O)cc1 | 661 s |
| Cc1ccc(NC(=O)c2sc(-c3cn(C)c4ncccc34)nc2C)cc1F | 1000 s |
| Cc1ccccc1-n1ccn(Cc2nc(-c3ccc(Cl)c(F)c3)no2)c(=O)c1=O | 679 s |
| CCCn1nc(C)cc1CN(C)c1ccc(NC(=O)CC)cc1C(=O)O | 618 s |
| COc1ccc(S(=O)(=O)N2CCCC(C(=O)Nc3ccc(Br)cc3)C2)cc1C (stereo unspecified) | 1110 s |
| CCn1cnc2cc(-c3noc(CNC(=O)c4ccco4)n3)ccc21 | 588 s |
| CSc1ccccc1NC(=O)C(=O)NN1CCN(C)CC1 | 559 s |
| c1ccc(-c2nc(C3CC3)no2)c(OC2CNC2)c1 | 614 s |
| COc1cccc(CNC(=O)N2CCC(n3c(-c4ccco4)nc4cccnc43)C2)c1 (stereo unspecified) | 712 s |
| Cc1ccc(-c2ccc3nn(Cc4nc(-c5cccc(Br)c5)no4)c(=O)n3n2)cc1 | 1070 s |

| Structure (SMILES) | RP-LC retention time |
| --- | --- |
| Cc1nn(-c2ccc(C(=O)N3CCCCC3)cc2)c2c1C(=O)CCC2 | 721 s |
| CCNC(=O)C1CCCN(c2nc3ncn(CC(=O)Nc4ccc(F)c(Cl)c4)c(=O)c3s2)C1 (stereo unspecified) | 698 s |
| Cc1ccc(S(=O)(=O)NC(C)c2nc(-c3ccc(NS(C)(=O)=O)cc3)no2)cc1 (stereo unspecified) | 817 s |
| Cc1sc(NC(=O)CCC2CCCCC2)nc1-c1ccc2c(c1)N(C)C(=O)CO2 | 1290 s |
| Cc1cccc(-n2c(=O)c3c(cc(C)n3C)n(CC(=O)Nc3ccc(C)c(C)c3)c2=O)c1 | 912 s |
| Cc1noc(C)c1CNC(=O)C(C)Oc1cccc(Cl)c1 (stereo unspecified) | 832 s |
| Cc1oc(-c2[nH]ncc2C(=O)N(C)C)cc1S(=O)(=O)NCc1ccccn1 | 833 s |
| COC(=O)c1ccc(NS(=O)(=O)c2cccc(-c3nc(-c4ccc(C)cc4)no3)c2)cc1 | 1190 s |
| COc1cc(NC(=O)C2CCN(C(=O)c3ncn4c3COC(c3ccccc3)C4)CC2)cc(OC)c1 (stereo unspecified) | 846 s |
| CCn1c(=O)c(=O)n(CC(=O)NC2CCCCCC2)c2cccnc21 | 760 s |
| O=C(C1CCN(S(=O)(=O)c2ccc(-c3noc(C4CC4)n3)cc2)CC1)N1CCOCC1 | 805 s |
| COc1ccc(CNC(=O)c2ccc3c(=O)n(-c4ccc(F)cc4)c(N4CCCC4)nc3c2)cc1 | 852 s |
| CN(C)S(=O)(=O)c1ccc(Cl)c(-c2nnc(-c3ccccc3)o2)c1 | 983 s |
| Cc1ccnc(Nc2nc(-c3ccc(Cl)cc3)cs2)c1 | 947 s |
| NC(=O)c1c(NC(=O)C2CCCN(C(=O)c3cc(F)cc(F)c3)C2)sc2c1CCCC2 (stereo unspecified) | 1230 s |
| CS(=O)(=O)N1CCCN(C(=O)Nc2ccccc2)CCNC(=O)CC1c1ccccc1 (stereo unspecified) | 698 s |
| COc1cc(NC(=O)CN2CCN(Cc3ccccc3)C(=O)C2=O)cc(OC)c1OC | 669 s |
| Cc1ccc(NC(=O)CN2C(=O)NC3(CCCCC3)C2=O)cc1F | 798 s |
| CC(C)NC(=O)c1ccc2c(c1)nc(CN1CCN(C(=O)NC3CCCCC3)CC1)n2C | 577 s |
| COc1ccc(NC(=O)N(C)CCc2noc(-c3ccc(Cl)cc3)n2)c(OC)c1 | 959 s |
